Tests used:
[1] = DRUGMATRIX: Calcium Channel Type L, Dihydropyridine radioligand binding (ligand: [3H] Nitrendipine); format: cell membranes, Rattus norvegicus, Wistar, Cerebral cortex, Membrane; conditions: Not Active = under 50% inhibition at 10 µM
[2] = target: T1, Nitric oxide synthase, inducible (Mus musculus, UniProt P29477); design: species or system Escherichia coli;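 further: inhibition of iNOS enzyme activity measured with L-arginine as substrate; in other assays of this panel Not Active means under 50% inhibition at 10 µM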
T1 sequence (P29477 whole entry): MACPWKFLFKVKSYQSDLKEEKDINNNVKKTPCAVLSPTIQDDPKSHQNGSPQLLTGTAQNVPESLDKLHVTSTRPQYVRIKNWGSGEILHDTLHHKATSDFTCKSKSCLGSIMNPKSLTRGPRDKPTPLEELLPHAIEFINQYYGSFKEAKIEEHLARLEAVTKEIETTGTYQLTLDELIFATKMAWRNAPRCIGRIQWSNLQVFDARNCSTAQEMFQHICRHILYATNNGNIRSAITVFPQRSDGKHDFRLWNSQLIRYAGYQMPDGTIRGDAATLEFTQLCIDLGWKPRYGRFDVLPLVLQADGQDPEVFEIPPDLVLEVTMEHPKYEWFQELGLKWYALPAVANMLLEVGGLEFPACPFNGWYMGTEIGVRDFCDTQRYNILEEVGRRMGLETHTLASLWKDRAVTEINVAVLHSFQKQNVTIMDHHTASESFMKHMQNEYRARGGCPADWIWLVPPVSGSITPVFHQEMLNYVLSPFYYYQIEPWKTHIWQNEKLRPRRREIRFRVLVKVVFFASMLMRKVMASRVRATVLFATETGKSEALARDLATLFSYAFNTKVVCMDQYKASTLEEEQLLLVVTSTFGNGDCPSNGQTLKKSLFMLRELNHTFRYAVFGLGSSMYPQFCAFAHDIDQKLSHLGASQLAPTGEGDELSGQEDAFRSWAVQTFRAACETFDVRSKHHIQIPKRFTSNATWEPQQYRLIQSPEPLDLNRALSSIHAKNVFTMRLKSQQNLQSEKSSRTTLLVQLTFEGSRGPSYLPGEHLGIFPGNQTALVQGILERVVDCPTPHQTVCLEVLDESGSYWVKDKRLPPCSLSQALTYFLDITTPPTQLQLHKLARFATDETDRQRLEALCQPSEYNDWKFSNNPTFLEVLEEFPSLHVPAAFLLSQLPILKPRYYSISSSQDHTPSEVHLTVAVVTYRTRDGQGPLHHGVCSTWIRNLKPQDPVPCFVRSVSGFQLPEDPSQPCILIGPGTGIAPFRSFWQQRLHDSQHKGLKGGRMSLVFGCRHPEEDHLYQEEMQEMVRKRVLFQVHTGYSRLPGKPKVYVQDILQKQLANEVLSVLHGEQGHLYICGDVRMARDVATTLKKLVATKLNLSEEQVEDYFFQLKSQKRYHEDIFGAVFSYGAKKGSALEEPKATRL

[3] = DRUGMATRIX: Glutamate, AMPA radioligand binding (ligand: [3H] AMPA); format: cell membranes, Rattus norvegicus, Wistar, Cerebral cortex, Membrane; conditions: Not Active = under 50% inhibition at 10 µM
Melanocortin receptor 3 = Melanocortin receptor 3 (Homo sapiens, UniProt P41968); format: cell membranes, HEK293, Membrane; conditions: hek293; further: in other assays of this panel Not Active means under 50% inhibition at 10 µM
Adenosine receptor A2a = Adenosine receptor A2a (Homo sapiens, UniProt P29274); experiment: DRUGMATRIX: Adenosine A2A radioligand binding (ligand: […]); format: cell membranes, HEK293, Membrane; conditions: Not Active = under 50% inhibition at 10 µM
[4] = DRUGMATRIX: Calcium Channel Type L, Benzothiazepine radioligand binding (ligand: [3H] Diltiazem); format: cell membranes, Rattus norvegicus, Wistar, Brain, Membrane; conditions: Not Active = under 50% inhibition at 10 µM
[5] = DRUGMATRIX: Nicotinic Acetylcholine radioligand binding (ligand: [125I] Epibatidine); format: cell membranes, Membrane; conditions: imr-32; Not Active = under 50% inhibition at 10 µM

Chain of Adenosine receptor A2a (P29274 whole entry): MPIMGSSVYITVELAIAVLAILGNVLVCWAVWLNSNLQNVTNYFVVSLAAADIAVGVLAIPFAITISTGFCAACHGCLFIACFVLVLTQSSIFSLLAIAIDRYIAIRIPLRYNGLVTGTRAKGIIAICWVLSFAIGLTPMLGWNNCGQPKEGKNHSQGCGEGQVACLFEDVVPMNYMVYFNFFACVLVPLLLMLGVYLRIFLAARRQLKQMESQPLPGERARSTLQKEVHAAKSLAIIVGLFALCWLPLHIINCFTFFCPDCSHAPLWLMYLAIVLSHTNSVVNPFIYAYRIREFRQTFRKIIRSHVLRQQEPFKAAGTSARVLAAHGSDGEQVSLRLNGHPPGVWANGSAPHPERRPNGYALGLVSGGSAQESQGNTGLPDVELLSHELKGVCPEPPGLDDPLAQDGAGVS
Chain of Melanocortin receptor 3 (P41968 whole entry): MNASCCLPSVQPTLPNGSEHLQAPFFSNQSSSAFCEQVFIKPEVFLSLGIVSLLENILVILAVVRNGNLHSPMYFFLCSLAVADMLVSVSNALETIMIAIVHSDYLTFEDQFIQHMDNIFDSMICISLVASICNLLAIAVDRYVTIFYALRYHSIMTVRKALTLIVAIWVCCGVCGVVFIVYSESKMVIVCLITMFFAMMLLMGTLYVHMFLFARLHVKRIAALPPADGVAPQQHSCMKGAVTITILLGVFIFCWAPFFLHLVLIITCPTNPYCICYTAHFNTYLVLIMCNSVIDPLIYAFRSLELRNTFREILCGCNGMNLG

| Compound | IC50 [1] | Ki [1] | IC50 [2] | IC50 [3] | Ki [3] | IC50 (Melanocortin receptor 3) | IC50 (Adenosine receptor A2a; hek293) | IC50 [4] | Ki [4] | IC50 [5] | Ki [5] | Ki [2] | Ki (Melanocortin receptor 3) | Ki (Adenosine receptor A2a; hek293) | IC50 ([4]; read-out: IC50) | Ki ([4]; read-out: Ki) | IC50 (Adenosine receptor A2a; read-out: IC50) | Ki (Adenosine receptor A2a; read-out: Ki) |
| --- | --- | --- | --- | --- | --- | --- | --- | --- | --- | --- | --- | --- | --- | --- | --- | --- | --- | --- |
| Cc1c(N)nc([C@H](CC(N)=O)NC[C@H](N)C(N)=O)nc1C(=O)N[C@H](C(=O)N[C@H](C)[C@@H](O)[C@H](C)C(=O)N[C@H](C(=O)NCCc1nc(-c2nc(C(=O)NCCC[S+](C)C)cs2)cs1)[C@@H](C)O)[C@@H](O[C@@H]1O[C@@H](CO)[C@@H](O)[C@H](O)[C@@H]1O[C@H]1O[C@H](CO)[C@@H](O)[C@H](OC(N)=O)[C@@H]1O)c1c[nH]cn1.[Br-] [BLEOMYCIN A2] | Not Active | Not Active | Not Active | Not Active | Not Active | Not Active | Not Active | Not Active | Not Active | Not Active | Not Active |  |  |  |  |  |  |  |
| CN(Cc1cc(Br)cc(Br)c1N)C1CCCCC1 [BROMHEXINE] | Not Active | Not Active | Not Active | Not Active | Not Active | Not Active | Not Active | Not Active | Not Active | Not Active | Not Active |  |  |  |  |  |  |  |
| COPPER(II) OXIDE | Not Active | Not Active | Not Active | Not Active | Not Active | Not Active | Not Active | Not Active | Not Active | Not Active | Not Active | Not Active | Not Active | Not Active |  |  |  |  |
| CC(CN1c2ccccc2Sc2ccccc21)N(C)C (stereo not drawn) [PROMETHAZINE] | Not Active | Not Active | Not Active | Not Active | Not Active | Not Active | Not Active |  |  | Not Active | Not Active |  |  |  | 2.78 µM | 2.47 µM |  |  |
| NC(N)=Nc1nc(CSCCC(N)=NS(N)(=O)=O)cs1 [FAMOTIDINE] | Not Active | Not Active | Not Active | Not Active | Not Active | Not Active | Not Active | Not Active | Not Active | Not Active | Not Active |  |  |  |  |  |  |  |
| CC(C)(c1ccc(O)cc1)c1ccc(O)cc1 [BISPHENOL A] | Not Active | Not Active | Not Active | Not Active | Not Active | Not Active | Not Active | Not Active | Not Active | Not Active | Not Active |  |  |  |  |  |  |  |
| c1ccc2sc(SSc3nc4ccccc4s3)nc2c1 [BENZOTHIAZYL DISULFIDE] | Not Active | Not Active | Not Active | Not Active | Not Active | Not Active | Not Active | Not Active | Not Active | Not Active | Not Active |  |  |  |  |  |  |  |
| CC(=O)Nc1ccc2c(c1)Cc1ccccc1-2 [2-ACETYLAMINOFLUORENE] | Not Active | Not Active | Not Active | Not Active | Not Active | Not Active | Not Active | Not Active | Not Active | Not Active | Not Active |  |  |  |  |  |  |  |
| Cc1cc(C(C)(C)C)c(O)c(C)c1CC1=NCCN1 [OXYMETAZOLINE] | Not Active | Not Active | Not Active | Not Active | Not Active | Not Active | Not Active | Not Active | Not Active | Not Active | Not Active |  |  |  |  |  |  |  |
| c1ccc(Cn2ccnc2)cc1 | Not Active | Not Active | Not Active | Not Active | Not Active | Not Active | Not Active | Not Active | Not Active | Not Active | Not Active |  |  |  |  |  |  |  |
| Nc1ccc(Cc2ccc(N)cc2)cc1 | Not Active | Not Active | Not Active | Not Active | Not Active | Not Active | Not Active | Not Active | Not Active | Not Active | Not Active |  |  |  |  |  |  |  |
| CC(N)Cc1c[nH]c2ccc(OCc3cccs3)cc12 (stereo not drawn) [BW-723C86] | Not Active | Not Active | Not Active | Not Active | Not Active | Not Active | Not Active |  |  | Not Active | Not Active |  |  |  | 3.47 µM | 3.08 µM |  |  |
| CCO [ALCOHOL] | Not Active | Not Active | Not Active | Not Active | Not Active | Not Active | Not Active | Not Active | Not Active | Not Active | Not Active |  |  |  |  |  |  |  |
| CC[C@H]1OC(=O)[C@H](C)[C@@H](O[C@H]2C[C@@](C)(OC)[C@@H](O)[C@H](C)O2)[C@H](C)[C@@H](O[C@@H]2O[C@H](C)C[C@H](N(C)C)[C@H]2O)[C@](C)(O)C[C@@H](C)C(=O)[C@H](C)[C@@H](O)[C@]1(C)O [ERYTHROMYCIN] | Not Active | Not Active | Not Active | Not Active | Not Active | Not Active | Not Active | Not Active | Not Active | Not Active | Not Active |  |  |  |  |  |  |  |
| O=C(O)CNCP(=O)(O)O [GLYPHOSATE] | Not Active | Not Active | Not Active | Not Active | Not Active | Not Active | Not Active | Not Active | Not Active | Not Active | Not Active |  |  |  |  |  |  |  |
| Nc1nc(N)c2nc(CNc3ccc(C(=O)N[C@@H](CCC(=O)O)C(=O)O)cc3)cnc2n1 [AMINOPTERIN] | Not Active | Not Active | Not Active | Not Active | Not Active | Not Active | Not Active | Not Active | Not Active | Not Active | Not Active |  |  |  |  |  |  |  |
| CC(C)Cn1cnc2c(N)nc3ccccc3c21 [IMIQUIMOD] | Not Active | Not Active | Not Active | Not Active | Not Active | Not Active |  | Not Active | Not Active | Not Active | Not Active |  |  |  |  |  | 5.32 µM | 2.99 µM |
| C[N+](C)(C)CCOP(=O)([O-])OC[C@H](O)CO | Not Active | Not Active | Not Active | Not Active | Not Active | Not Active | Not Active | Not Active | Not Active | Not Active | Not Active |  |  |  |  |  |  |  |
| OC[C@H]1O[C@@H]2O[C@H]3[C@H](O)[C@@H](O)[C@@H](O[C@H]4[C@H](O)[C@@H](O)[C@@H](O[C@H]5[C@H](O)[C@@H](O)[C@@H](O[C@H]6[C@H](O)[C@@H](O)[C@@H](O[C@H]7[C@H](O)[C@@H](O)[C@@H](O[C@H]8[C@H](O)[C@@H](O)[C@@H](O[C@H]1[C@H](O)[C@H]2O)O[C@@H]8CO)O[C@@H]7CO)O[C@@H]6CO)O[C@@H]5CO)O[C@@H]4CO)O[C@@H]3CO [BETADEX] | Not Active | Not Active | Not Active | Not Active | Not Active | Not Active | Not Active | Not Active | Not Active | Not Active | Not Active |  |  |  |  |  |  |  |

From ChEMBL document CHEMBL1909046, “DrugMatrix in vitro pharmacology data”
